Test results published in US11285156B2, “Substituted piperazines as KRAS G12C inhibitors” (Amgen Inc., priority 2018, dated 2022).

These compounds were tested against GDP-bound KRAS protein (aa 1-169), containing both G12C and C118A amino acid substitutions (Homo sapiens (Human), UniProt P01116, C118A/G12C) (assay: Coupled nucleotide exchange assay (SOS-mediated nucleotide exchange, AlphaScreen)). Conditions: 5 min compound pre-incubation.
Type: biochemical

Chain of GDP-bound KRAS protein (aa 1-169), containing both G12C and C118A amino acid substitutions (P01116 other isoform, or with tags, fused parts or gaps G12C/C118A): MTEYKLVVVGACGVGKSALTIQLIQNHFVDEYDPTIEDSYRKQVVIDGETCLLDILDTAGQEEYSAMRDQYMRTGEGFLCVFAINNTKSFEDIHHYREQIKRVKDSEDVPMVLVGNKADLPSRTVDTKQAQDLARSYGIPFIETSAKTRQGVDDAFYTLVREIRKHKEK

Structure (SMILES)	Coupled exchange IC50 (5 min; μM) [µM]
[2H]C1([2H])N(C(=O)C=C)C([2H])([2H])C([2H])([2H])N(c2nc(=O)n(-c3c(C)ccnc3C(C)C)c3nc(-c4c(O)cccc4F)c(F)cc23)C1([2H])[2H] (atropisomer, axis not shown; (M)) [Example 72-22, (M)-6-Fluoro-7-(2-fluoro-6-hydroxy-phenyl)-1-(2-isopropyl-4-methyl-3-pyridyl)-4-(2,2,3,3,5,5,6,6-octadeuterio-4-prop-2-enoyl-piperazin-1-yl)pyrido[2,3-d]pyrimidin-2-one]	0.408

Same assay, conditions: read-out: Coupled exchange IC50 (5 min; μM); 5 min compound pre-incubation

Structure (SMILES)	IC50 [µM]
C=CC(=O)N1C[C@H](C)N(c2nc(=O)n(-c3c(C)ccnc3C(C)C)c3nc(N4CCCC4C(F)F)c(Cl)cc23)C[C@H]1C (atropisomer, axis not shown; (M)) [Example 69-10, (M)-6-Chloro-7-[2-(difluoromethyl)pyrrolidin-1-yl]-4-[(2S,5R)-2,5-dimethyl-4-prop-2-enoyl-piperazin-1-yl]-1-(2-isopropyl-4-methyl-3-pyridyl)pyrido[2,3-d]pyrimidin-2-one]	11
C=CC(=O)N1C[C@H](C)N(c2nc(=O)n(-c3c(C)ccnc3C(C)C)c3nc(N4CCCCC4)c(Cl)cc23)C[C@H]1C (atropisomer, axis not shown; (M)) [Example 69-11, (M)-6-Chloro-4-[(2S,5R)-2,5-dimethyl-4-prop-2-enoyl-piperazin-1-yl]-1-(2-isopropyl-4-methyl-3-pyridyl)-7-(1-piperidyl)pyrido[2,3-d]pyrimidin-2-one]	1.14
C=CC(=O)N1C[C@H](C)N(c2nc(=O)n(-c3c(C)ccnc3C(C)C)c3nc(-c4ccccc4P(C)(C)=O)c(F)cc23)C[C@H]1C (atropisomer, axis not shown; (M)) [Example 72-23, (M)-7-(2-Dimethylphosphorylphenyl)-4-[(2S,5R)-2,5-dimethyl-4-prop-2-enoyl-piperazin-1-yl]-6-fluoro-1-(2-isopropyl-4-methyl-3-pyridyl)pyrido[2,3-d]pyrimidin-2-one]	0.647
C=CC(=O)N1[C@@H]2CC[C@H]1CN(c1nc(=O)n(-c3c(C)ccnc3C(C)C)c3nc(-c4ccccc4F)c(Cl)cc13)C2 (atropisomer, axis not shown; (M)) [Example 79-10, (M)-6-Chloro-7-(2-fluorophenyl)-1-(2-isopropyl-4-methyl-3-pyridyl)-4-[(1S,5R)-8-prop-2-enoyl-3,8-diazabicyclo[3.2.1]octan-3-yl]pyrido[2,3-d]pyrimidin-2-one]	2.78
C=CC(=O)N1C[C@@H]2CC[C@H]1CN2c1nc(=O)n(-c2c(C)ccnc2C(C)C)c2nc(-c3ccccc3F)c(Cl)cc12 (atropisomer, axis not shown; (M)) [Example 79-11, (M)-6-Chloro-7-(2-fluorophenyl)-1-(2-isopropyl-4-methyl-3-pyridyl)-4-[(1S,4S)-5-prop-2-enoyl-2,5-diazabicyclo[2.2.2]octan-2-yl]pyrido[2,3-d]pyrimidin-2-one]	26.7
C=CC(=O)N1C[C@H]2CCC[C@@H](C1)N2c1nc(=O)n(-c2c(C)ccnc2C(C)C)c2nc(-c3ccccc3F)c(Cl)cc12 (atropisomer, axis not shown; (M)) [Example 79-12, (M)-6-Chloro-7-(2-fluorophenyl)-1-(2-isopropyl-4-methyl-3-pyridyl)-4-[(1S,5R)-3-prop-2-enoyl-3,9-diazabicyclo[3.3.1]nonan-9-yl]pyrido[2,3-d]pyrimidin-2-one]	5.46
C=CC(=O)N1C[C@H](C)N(c2nc(=O)n(-c3c(C)ccnc3C(C)C)c3nc(C=C(C)C)c(Cl)cc23)C[C@H]1C (atropisomer, axis not shown; (M)) [Example 92-8, (M)-6-Chloro-4-[(2S,5R)-2,5-dimethyl-4-prop-2-enoyl-piperazin-1-yl]-1-(2-isopropyl-4-methyl-3-pyridyl)-7-(2-methylprop-1-enyl)pyrido[2,3-d]pyrimidin-2-one]	0.985
C=CC(=O)N1C[C@H](C)N(c2nc(=O)n(-c3c(C)ccnc3C(C)C)c3nc(C4=CCOCC4)c(Cl)cc23)C[C@H]1C (atropisomer, axis not shown; (M)) [Example 92-9, (M)-6-Chloro-7-(3,6-dihydro-2H-pyran-4-yl)-4-[(2S,5R)-2,5-dimethyl-4-prop-2-enoyl-piperazin-1-yl]-1-(2-isopropyl-4-methyl-3-pyridyl)pyrido [2,3-d]pyrimidin-2-one]	8.53
C=CC(=O)N1C[C@H](C)N(c2nc(=O)n(-c3c(C)ccnc3C(C)C)c3nc(-c4cccc5c4NC(=O)C5)c(Cl)cc23)C[C@H]1C (atropisomer, axis not shown; (M)) [Example 92-20, (M)-6-Chloro-4-[(2S,5R)-2,5-dimethyl-4-prop-2-enoyl-piperazin-1-yl]-1-(2-isopropyl-4-methyl-3-pyridyl)-7-(2-oxoindolin-7-yl)pyrido[2,3-d]pyrimidin-2-one]	0.403
C=CC(=O)N1C[C@H](C)N(c2nc(=O)n(-c3c(C)ccnc3C(C)C)c3[nH]c(=O)c(Cl)cc23)C[C@H]1C (atropisomer, axis not shown; (M)) [Example 92-22, (M)-6-Chloro-4-[(2S,5R)-2,5-dimethyl-4-prop-2-enoyl-piperazin-1-yl]-1-(2-isopropyl-4-methyl-3-pyridyl)-8H-pyrido[2,3-d]pyrimidine-2,7-dione]	2.94
C=CC(=O)N1C[C@H](C)N(c2nc(=O)n(-c3c(C)ccnc3C(C)C)c3nc(-c4cccc5cn[nH]c45)c(Cl)cc23)C[C@H]1C (atropisomer, axis not shown; (M)) [Example 92-30, (M)-6-Chloro-4-[(2S,5R)-2,5-dimethyl-4-prop-2-enoyl-piperazin-1-yl]-7-(1H-indazol-7-yl)-1-(2-isopropyl-4-methyl-3-pyridyl)pyrido [2,3-d]pyrimidin-2-one]	0.479
C=CC(=O)N1C[C@H](C)N(c2nc(=O)n(-c3c(C)ccnc3C(C)C)c3nc(-c4ccccc4NC(=O)C(C)(C)C)c(Cl)cc23)C[C@H]1C (atropisomer, axis not shown; (M)) [Example 92-35, (M)-N-[2-[6-Chloro-4-[(2S,5R)-2,5-dimethyl-4-prop-2-enoyl-piperazin-1-yl]-1-(2-isopropyl-4-methyl-3-pyridyl)-2-oxo-pyrido[2,3-d]pyrimidin-7-yl]phenyl]-2,2-dimethyl-propanamide]	0.758
C=CC(=O)N1C[C@H](C)N(c2nc(=O)n(-c3c(C)ccnc3C(C)C)c3nc(-c4ccsc4)c(Cl)cc23)C[C@H]1C (atropisomer, axis not shown; (M)) [Example 92-50, (M)-6-Chloro-4-[(2S,5R)-2,5-dimethyl-4-prop-2-enoyl-piperazin-1-yl]-1-(2-isopropyl-4-methyl-3-pyridyl)-7-(3-thienyl)pyrido[2,3-d]pyrimidin-2-one]	1.1
C=CC(=O)N1C[C@H](C)N(c2nc(=O)n(-c3c(C)ccnc3C(C)C)c3nc(-c4cccc(C(F)(F)F)c4)c(Cl)cc23)C[C@H]1C (atropisomer, axis not shown; (M)) [Example 92-56, (M)-6-Chloro-4-[(2S,5R)-2,5-dimethyl-4-prop-2-enoyl-piperazin-1-yl]-1-(2-isopropyl-4-methyl-3-pyridyl)-7-[3-(trifluoromethyl)phenyl]pyrido [2,3-d]pyrimidin-2-one]	0.591
